Tested on: 429239-143-T-J1-PDC complex spheroid viability
Experiment: Anticancer human tumor 429239-143-T-J1-PDC patient-derived small cell lung carcinoma cell line growth inhibition [POLQ]
Settings: for IC50: curve of first compound; for viability, T/C: stronger effect = lower value
Summary of the method: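 PDC + HUVEC + MSC complex spheroids; POLQ inhibitors ± partner drugs; top conc. at/near clinical Cmax, else 10 microM (SN-38 1 microM), half-log dilutions; 37 degrees C, 5% CO2.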

[1] = second compound 0.0316 µM, first compound 0.0316 µM
[2] = second compound 0.0316 µM, first compound 0.1 µM
[3] = second compound 0.0316 µM, first compound 0.316 µM
[4] = second compound 0.0316 µM, first compound 1 µM
[5] = second compound 0.0316 µM, first compound 3.16 µM
[6] = second compound 0.0316 µM, first compound 10 µM
[7] = second compound 0.1 µM, first compound 0.0316 µM
[8] = second compound 0.1 µM, first compound 0.1 µM
[9] = second compound 0.1 µM, first compound 0.316 µM
[10] = second compound 0.1 µM, first compound 1 µM
[11] = second compound 0.1 µM, first compound 3.16 µM
[12] = second compound 0.1 µM, first compound 10 µM
[13] = second compound 0.316 µM, first compound 0.0316 µM
[14] = second compound 0.316 µM, first compound 0.1 µM
[15] = second compound 0.316 µM, first compound 0.316 µM
[16] = second compound 0.316 µM, first compound 1 µM
[17] = second compound 0.316 µM, first compound 3.16 µM
[18] = second compound 0.316 µM, first compound 10 µM
[19] = second compound 1 µM, first compound 0.0316 µM
[20] = second compound 1 µM, first compound 0.1 µM
[21] = second compound 1 µM, first compound 0.316 µM
[22] = second compound 1 µM, first compound 1 µM
[23] = second compound 1 µM, first compound 3.16 µM
[24] = second compound 1 µM, first compound 10 µM
[25] = second compound 3.16 µM, first compound 0.0316 µM
[26] = second compound 3.16 µM, first compound 0.1 µM
[27] = second compound 3.16 µM, first compound 0.316 µM
[28] = second compound 3.16 µM, first compound 1 µM
[29] = second compound 3.16 µM, first compound 3.16 µM
[30] = second compound 3.16 µM, first compound 10 µM
[31] = second compound 10 µM, first compound 0.0316 µM
[32] = second compound 10 µM, first compound 0.1 µM
[33] = second compound 10 µM, first compound 0.316 µM
[34] = second compound 10 µM, first compound 1 µM
[35] = second compound 10 µM, first compound 3.16 µM
[36] = second compound 10 µM, first compound 10 µM
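Note: luminescence signal used as surrogate measure of viable cells; spheroids exposed to compounds for seven days before readout.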
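Throughout, for viability, T/C: 100% = DMSO vehicle control viability as luminescence relative to vehicle.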

## CC1COCCN1c1cc(C2(S(C)(=N)=O)CC2)nc(-c2ccnc3[nH]ccc23)n1 (centres undefined) + Nc1ccc(C#CCN(C(=O)Cc2ncc(C(F)(F)F)cc2C(F)(F)F)c2ccc(F)cc2)nn1
Second compound 0.0316 µM
  IC50: > 10 µM
Second compound 0.1 µM
  IC50: 9.98 µM
Second compound 0.316 µM
  IC50: 9.92 µM
Second compound 1 µM
  IC50: > 10 µM
Second compound 3.16 µM
  IC50: 8.71 µM
Second compound 10 µM
  IC50: 7.19 µM
[1]
  viability, T/C: 90.4%
[2]
  viability, T/C: 105%
[3]
  viability, T/C: 100%
[4]
  viability, T/C: 91%
[5]
  viability, T/C: 80.4%
[6]
  viability, T/C: 53.3%
[7]
  viability, T/C: 109%
[8]
  viability, T/C: 104%
[9]
  viability, T/C: 94.6%
[10]
  viability, T/C: 95.2%
[11]
  viability, T/C: 84.8%
[12]
  viability, T/C: 49%
[13]
  viability, T/C: 99.9%
[14]
  viability, T/C: 97.7%
[15]
  viability, T/C: 97.2%
[16]
  viability, T/C: 92.5%
[17]
  viability, T/C: 77.2%
[18]
  viability, T/C: 49.6%
[19]
  viability, T/C: 113%
[20]
  viability, T/C: 91.2%
[21]
  viability, T/C: 90.2%
[22]
  viability, T/C: 90.2%
[23]
  viability, T/C: 79.2%
[24]
  viability, T/C: 51.6%
[25]
  viability, T/C: 99.1%
[26]
  viability, T/C: 86.8%
[27]
  viability, T/C: 90.7%
[28]
  viability, T/C: 95.2%
[29]
  viability, T/C: 79.6%
[30]
  viability, T/C: 46%
[31]
  viability, T/C: 95.5%
[32]
  viability, T/C: 91.4%
[33]
  viability, T/C: 101%
[34]
  viability, T/C: 83.9%
[35]
  viability, T/C: 79.7%
[36]
  viability, T/C: 38.5%

## CCCS(=O)(=O)Nc1ccc(F)c(C(=O)c2c[nH]c3ncc(-c4ccc(Cl)cc4)cc23)c1F + Nc1ccc(C#CCN(C(=O)Cc2ncc(C(F)(F)F)cc2C(F)(F)F)c2ccc(F)cc2)nn1
Second compound 0.0316 µM
  IC50: > 10 µM
Second compound 0.1 µM
  IC50: > 10 µM
Second compound 0.316 µM
  IC50: > 10 µM
Second compound 1 µM
  IC50: > 10 µM
Second compound 3.16 µM
  IC50: > 10 µM
Second compound 10 µM
  IC50: > 10 µM
[1]
  viability, T/C: 99%
[2]
  viability, T/C: 111%
[3]
  viability, T/C: 101%
[4]
  viability, T/C: 110%
[5]
  viability, T/C: 104%
[6]
  viability, T/C: 93.3%
[7]
  viability, T/C: 106%
[8]
  viability, T/C: 102%
[9]
  viability, T/C: 96.9%
[10]
  viability, T/C: 100%
[11]
  viability, T/C: 98.3%
[12]
  viability, T/C: 88.7%
[13]
  viability, T/C: 105%
[14]
  viability, T/C: 108%
[15]
  viability, T/C: 106%
[16]
  viability, T/C: 106%
[17]
  viability, T/C: 108%
[18]
  viability, T/C: 93.4%
[19]
  viability, T/C: 114%
[20]
  viability, T/C: 99.5%
[21]
  viability, T/C: 97.4%
[22]
  viability, T/C: 104%
[23]
  viability, T/C: 112%
[24]
  viability, T/C: 91%
[25]
  viability, T/C: 105%
[26]
  viability, T/C: 104%
[27]
  viability, T/C: 94.6%
[28]
  viability, T/C: 102%
[29]
  viability, T/C: 101%
[30]
  viability, T/C: 94.9%
[31]
  viability, T/C: 116%
[32]
  viability, T/C: 98.3%
[33]
  viability, T/C: 105%
[34]
  viability, T/C: 108%
[35]
  viability, T/C: 102%
[36]
  viability, T/C: 89.1%

Reference: PubChem BioAssay AID1963845 (Molecular Pharmacology Branch, DTP, NCI, 2024)
